Source: ChEMBL document CHEMBL1127283, “Structure of maesaquinone” (Bioorg Med Chem Lett, 1994)
In brackets after ≈: the same amount, converted by molar mass.

How the values were obtained:
[1] = molecular target: T1, Polyunsaturated fatty acid 5-lipoxygenase (Homo sapiens) (UniProt P09917); experiment: Compound was tested for its inhibitory activity against 5-lipoxygenase
T1 sequence (whole entry): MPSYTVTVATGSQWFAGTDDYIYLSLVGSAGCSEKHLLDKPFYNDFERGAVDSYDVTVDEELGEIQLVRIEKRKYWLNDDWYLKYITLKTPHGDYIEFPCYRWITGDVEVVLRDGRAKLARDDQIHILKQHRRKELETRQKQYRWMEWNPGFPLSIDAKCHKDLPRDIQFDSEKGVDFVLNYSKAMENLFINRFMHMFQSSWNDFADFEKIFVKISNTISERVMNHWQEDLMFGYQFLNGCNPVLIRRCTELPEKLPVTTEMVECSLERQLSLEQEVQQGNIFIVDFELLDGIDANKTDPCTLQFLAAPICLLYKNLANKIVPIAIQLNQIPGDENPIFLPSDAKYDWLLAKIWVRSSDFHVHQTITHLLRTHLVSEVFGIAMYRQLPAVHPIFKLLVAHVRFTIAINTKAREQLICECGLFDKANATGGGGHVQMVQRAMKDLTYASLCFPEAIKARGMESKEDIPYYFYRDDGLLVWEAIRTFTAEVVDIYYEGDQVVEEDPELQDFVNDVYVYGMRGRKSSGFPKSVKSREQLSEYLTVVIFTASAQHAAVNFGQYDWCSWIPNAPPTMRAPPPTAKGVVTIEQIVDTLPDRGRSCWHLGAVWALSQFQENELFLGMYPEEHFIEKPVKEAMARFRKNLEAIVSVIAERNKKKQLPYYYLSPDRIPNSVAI

HeLa [2] = experiment: Compound was tested for its cytotoxicity against HeLa epithelioid cervix carcinoma cells.; type: functional, cell-based; conditions: Homo sapiens
BT-20 = experiment: Compound was tested for its cytotoxicity against BT-20 breast carcinoma cells; type: functional, cell-based; conditions: Homo sapiens
HeLa [3] = experiment: Compound was tested for its cytotoxicity against HeLa epithelioid cervix carcinoma cells; type: functional, cell-based; conditions: Homo sapiens

CCCC/C=C\CCCCCCCCCC1=C(O)C(OC)=CC(=O)C1=O
IC90 [1]: 3 µM
IC50 (HeLa [2]): 1.25 µg/mL (≈ 3.45 µM)
IC50 (BT-20): 1.8 µg/mL (≈ 4.97 µM)

CCCC/C=C\CCCCCCCCCC1=C(O)C(O)=C(C)C(=O)C1=O
IC50 (HeLa [3]): 2.05 µg/mL (≈ 5.66 µM)
IC50 (BT-20): 1.58 µg/mL (≈ 4.36 µM)
